Measurements taken from PubChem BioAssay AID1259407 (Chemical Carcinogenesis Research Information System (CCRIS), 2018).
Activity calls are given as the source filed them. How the calls were made is not given here.

System: CCRIS mutagenicity, Ames/micronucleus/aberration tests
Assay: CCRIS mutagenicity studies
[1] = Test System: AMES SALMONELLA TYPHIMURIUM, Strain/Indicator: TA98, Metabolic Activation: NONE, Method: STANDARD PLATE
[2] = Test System: AMES SALMONELLA TYPHIMURIUM, Strain/Indicator: TA98, Metabolic Activation: RAT, LIVER, S-9, AROCLOR 1254, Method: STANDARD PLATE
[3] = Test System: AMES SALMONELLA TYPHIMURIUM, Strain/Indicator: TA100, Metabolic Activation: NONE, Method: STANDARD PLATE
[4] = Test System: AMES SALMONELLA TYPHIMURIUM, Strain/Indicator: TA100, Metabolic Activation: RAT, LIVER, S-9, AROCLOR 1254, Method: STANDARD PLATE
[5] = Test System: AMES SALMONELLA TYPHIMURIUM, Strain/Indicator: TA1535, Metabolic Activation: NONE, Method: STANDARD PLATE
[6] = Test System: AMES SALMONELLA TYPHIMURIUM, Strain/Indicator: TA1535, Metabolic Activation: RAT, LIVER, S-9, AROCLOR 1254, Method: STANDARD PLATE
[7] = Test System: AMES SALMONELLA TYPHIMURIUM, Strain/Indicator: TA1537, Metabolic Activation: NONE, Method: STANDARD PLATE
[8] = Test System: AMES SALMONELLA TYPHIMURIUM, Strain/Indicator: TA1537, Metabolic Activation: RAT, LIVER, S-9, AROCLOR 1254, Method: STANDARD PLATE
[9] = Test System: AMES SALMONELLA TYPHIMURIUM, Strain/Indicator: TA98, Metabolic Activation: NONE, Method: PREINCUBATION
[10] = Test System: AMES SALMONELLA TYPHIMURIUM, Strain/Indicator: TA100, Metabolic Activation: NONE, Method: PREINCUBATION
[11] = Test System: AMES SALMONELLA TYPHIMURIUM, Strain/Indicator: TA1535, Metabolic Activation: NONE, Method: PREINCUBATION
[12] = Test System: AMES SALMONELLA TYPHIMURIUM, Strain/Indicator: TA1537, Metabolic Activation: NONE, Method: PREINCUBATION

For `CCCCCCCCSCn1cc[n+](C)c1`, the mutagenic call [1] was “inactive; negative”, the mutagenic call [2] was “inactive; negative” and the mutagenic call [3] was “inactive; negative”. For the same compound, the mutagenic call [4] was “inactive; negative”, the mutagenic call [5] was “inactive; negative” and the mutagenic call [6] was “inactive; negative”. For the same compound, the mutagenic call [7] was “inactive; negative”, the mutagenic call [8] was “inactive; negative” and the mutagenic call (Test System: AMES SALMONELLA TYPHIMURIUM, Strain/Indicator: TA1538, Metabolic Activation: NONE, Method: STANDARD PLATE) was “inactive; negative”. The mutagenic call (Test System: AMES SALMONELLA TYPHIMURIUM, Strain/Indicator: TA1538, Metabolic Activation: RAT, LIVER, S-9, AROCLOR 1254, Method: STANDARD PLATE) was “inactive; negative”.
In the case of `COC1OC1(C)C` (stereo unspecified), the mutagenic call [3] is reported as “active; positive” and the mutagenic call [5] is reported as “active; positive”.
`CCc1ccccc1[N+](=O)[O-]` was tested, and the mutagenic call [9] was “inactive; negative”, the mutagenic call (Test System: AMES SALMONELLA TYPHIMURIUM, Strain/Indicator: TA98, Metabolic Activation: RAT, LIVER, S-9, KANECHLOR 500, Method: PREINCUBATION) was “inactive; negative” and the mutagenic call [10] was “inactive; negative”. For the same compound, the mutagenic call (Test System: AMES SALMONELLA TYPHIMURIUM, Strain/Indicator: TA100, Metabolic Activation: RAT, LIVER, S-9, KANECHLOR 500, Method: PREINCUBATION) was “inactive; negative”.
For `O=[N+]([O-])c1c(Cl)c(Cl)cc(Cl)c1Cl`, the mutagenic call (End Point: IN VITRO CHROMOSOMAL ABERRATIONS, Test System: CHINESE HAMSTER OVARY CELLS, Metabolic Activation: NONE) was “inactive; negative”, the mutagenic call (End Point: IN VITRO CHROMOSOMAL ABERRATIONS, Test System: CHINESE HAMSTER OVARY CELLS, Metabolic Activation: RAT, LIVER, S-9, AROCLOR 1254) was “inactive; negative” and the mutagenic call (Test System: AMES SALMONELLA TYPHIMURIUM, Strain/Indicator: TA98, Metabolic Activation: HAMSTER, LIVER, S-9, AROCLOR 1254, Method: PREINCUBATION) was “inactive; negative”. The mutagenic call [9] was “inactive; negative”, the mutagenic call (Test System: AMES SALMONELLA TYPHIMURIUM, Strain/Indicator: TA98, Metabolic Activation: RAT, LIVER, S-9, AROCLOR 1254, Method: PREINCUBATION) was “inactive; negative” and the mutagenic call (Test System: AMES SALMONELLA TYPHIMURIUM, Strain/Indicator: TA100, Metabolic Activation: HAMSTER, LIVER, S-9, AROCLOR 1254, Method: PREINCUBATION) was “inactive; negative”. For the same compound, the mutagenic call [10] was “inactive; negative”, the mutagenic call (Test System: AMES SALMONELLA TYPHIMURIUM, Strain/Indicator: TA100, Metabolic Activation: RAT, LIVER, S-9, AROCLOR 1254, Method: PREINCUBATION) was “inactive; negative” and the mutagenic call (Test System: AMES SALMONELLA TYPHIMURIUM, Strain/Indicator: TA1535, Metabolic Activation: HAMSTER, LIVER, S-9, AROCLOR 1254, Method: PREINCUBATION) was “inactive; negative”. The mutagenic call [11] was “inactive; negative”, the mutagenic call (Test System: AMES SALMONELLA TYPHIMURIUM, Strain/Indicator: TA1535, Metabolic Activation: RAT, LIVER, S-9, AROCLOR 1254, Method: PREINCUBATION) was “inactive; negative” and the mutagenic call (Test System: AMES SALMONELLA TYPHIMURIUM, Strain/Indicator: TA1537, Metabolic Activation: HAMSTER, LIVER, S-9, AROCLOR 1254, Method: PREINCUBATION) was “inactive; negative”. The mutagenic call [12] was “inactive; negative” and the mutagenic call (Test System: AMES SALMONELLA TYPHIMURIUM, Strain/Indicator: TA1537, Metabolic Activation: RAT, LIVER, S-9, AROCLOR 1254, Method: PREINCUBATION) was “inactive; negative”.
`COc1ccc(-c2noc(CC(=O)O)c2-c2ccc(OC)cc2)cc1` was tested, and the mutagenic call [9] was “inactive; negative”, the mutagenic call (Test System: AMES SALMONELLA TYPHIMURIUM, Strain/Indicator: TA98, Metabolic Activation: RAT, LIVER, S-9, PHENOBARBITAL AND 5,6-BENZOFLAVONE, Method: PREINCUBATION) was “inactive; negative” and the mutagenic call [10] was “inactive; negative”. For the same compound, the mutagenic call (Test System: AMES SALMONELLA TYPHIMURIUM, Strain/Indicator: TA100, Metabolic Activation: RAT, LIVER, S-9, PHENOBARBITAL AND 5,6-BENZOFLAVONE, Method: PREINCUBATION) was “inactive; negative”, the mutagenic call [11] was “inactive; negative” and the mutagenic call (Test System: AMES SALMONELLA TYPHIMURIUM, Strain/Indicator: TA1535, Metabolic Activation: RAT, LIVER, S-9, PHENOBARBITAL AND 5,6-BENZOFLAVONE, Method: PREINCUBATION) was “inactive; negative”. The mutagenic call [12] was “inactive; negative”, the mutagenic call (Test System: AMES SALMONELLA TYPHIMURIUM, Strain/Indicator: TA1537, Metabolic Activation: RAT, LIVER, S-9, PHENOBARBITAL AND 5,6-BENZOFLAVONE, Method: PREINCUBATION) was “inactive; negative” and the mutagenic call (Test System: E. COLI, Strain/Indicator: WP2 UVRA, Metabolic Activation: NONE, Method: PREINCUBATION) was “inactive; negative”. The mutagenic call (Test System: E. COLI, Strain/Indicator: WP2 UVRA, Metabolic Activation: RAT, LIVER, S-9, PHENOBARBITAL AND 5,6-BENZOFLAVONE, Method: PREINCUBATION) was “inactive; negative”.
With `O=C(N[C@H](CO)[C@H](O)c1ccc([N+](=O)[O-])cc1)C(Cl)Cl` the mutagenic call (Test System: CHINESE HAMSTER V-79, Strain/Indicator: V-79/6-THIOGUANINE, Metabolic Activation: NONE) was “active; positive” and the mutagenic call (Test System: CHINESE HAMSTER V-79, Strain/Indicator: V-79/6-THIOGUANINE, Metabolic Activation: RAT HEPATOCYTES) was “inactive; negative”.
`CCCNC(=O)C=Cc1ccc([N+](=O)[O-])o1` was tested, and the mutagenic call [9] was “active; positive”.
`CCC(=O)n1ncc(Cl)c(Cl)c1=O` was tested, and the mutagenic call [1] was “inactive; negative”, the mutagenic call [2] was “inactive; negative” and the mutagenic call [3] was “inactive; negative”. The mutagenic call [4] was “inactive; negative”, the mutagenic call [5] was “inactive; negative” and the mutagenic call [6] was “inactive; negative”. For the same compound, the mutagenic call [7] was “inactive; negative” and the mutagenic call [8] was “inactive; negative”.
